# Laboratory results: patent US20140371244A1, “METHOD FOR TREATING PROSTATE CANCER BY USE OF PHARMACEUTICAL COMPOSITION CONTAINING A3 ADENOSINE RECEPTOR AGONIST” (priority 2009, published 2014)
# How the values were obtained:
# [1] = system: IL-1β; experiment: IL-1β gene and protein expression in LPS-stimulated RAW 264.7 cells; format: cell-based, mouse; settings: 5, 10, 20 μM, LPS 1 μg/ml
# Procedure: IL-1β is one of major factors involved in inflammation and functions to induce the expression of several genes related to inflammation and tissue injury. Thus, the effects of the inventive composition on the expressions of mRNA gene and protein of IL-1β were tested. Specifically, RAW 264.7 cells were pretreated with each of 20, 10 and 5 μM of the inventive composition (thio-Cl-IB-MECA) and treated with LPS (1 μg/ml) to induce inflammatory reactions, followed by culture for 4 hours. The RNA fraction was collected and cultured for 8 hours, and then the protein was collected and subjected to RT-PCR and Western blot.
# [2] = system: HCT 116 cells; experiment: Western blot of cell cycle regulation-related proteins and Wnt signaling in HCT 116 cells; format: cell-based, human; settings: 40 μM
# Procedure: Because it was confirmed that thio-Cl-IB-MECA arrests the G1 phase of human colorectal cancer HCT 116 cells, a test was carried out to examine whether cell cycle regulation-related proteins involved in the G1 phase are expressed and to examine the expression of Wnt-related proteins in order to examine whether the inhibitory effect of thio-Cl-IB-MECA on the proliferation of cancer cells is attributable to regulation of the signaling pathway.
# Specifically, HCT 116 cells were diluted with 10% FBS-containing medium to a density of 1×10^6 cells per 100 mm culture dish and cultured under the conditions of 37° C. and 5% CO2 for 24 hours, followed by washing twice with PBS. Thio-Cl-IB-MECA was diluted in 10% FBS-containing medium to a concentration of 40 μM, and then 10 ml of the culture medium prepared in the 100 mm culture dish was added thereto and cultured for a given period. The non-adherent cells and adherent cells in the cell medium were collected and washed twice with PBS, after which the cells were suspended in boiling cell lysis buffer and heated at 100° C. for 5 minutes. The cells were cooled and then stored at […], and the stored cells were thawed at 37° C. immediately before use in protein quantification and electrophoresis. Protein quantification was performed using the BCA method, and […] of protein was electrophoresed on 8-12% SDS-polyacrylamide gel at 150 V for 110 minutes. The gel at the desired site was cut and transferred to a PVDF (polyvinylidene fluoride) for 1 hour, and after which it was washed twice with PBST and stirred in blocking buffer at room temperature for 1 hour. Then, the membrane was washed three times with PBST for 5 minutes each time, after which primary antibody was diluted at a ratio of 1:1,000-1:2,000 with 3% skimmed milk/PBST, and it was sealed together with the membrane and incubated with stirring at 4° C. for 12 hours or more. The membrane was washed 2-3 times with PBST for 5 minutes each time, after which HRP-conjugated secondary antibody was diluted at a ratio of 1:1,500-1:2,000 and incubated with the membrane at room temperature for 2-3 hours. The membrane was washed three times with PBST for 5 minutes each time and treated with a Western blot substrate (WESTSAVE Up™), and the produced luminescence was examined using LAS-3000.
# [3] = system: human colorectal cancer HCT 116 cells; experiment: Cell cycle analysis (FACS) in HCT 116 cells; format: cell-based; settings: 40 μM, 24 and 36 hours
# Procedure: Cells were treated with 40 μM of thio-Cl-IB-MECA and cultured for 24 and 36 hours, and the cell cycle of the cells was analyzed by flow cytometer analysis (FACS). Specifically, cells were diluted with 10% FBS-containing medium to a density of 1.0×10^6 cells per 100 mm culture dish and cultured under the conditions of 37° C. and 5% CO2 for 24 hours, followed by washing twice with PBS. Thio-Cl-IB-MECA was diluted in 10% FBS-containing medium to a concentration of 40 μM, and then 10 ml of the culture medium prepared in the 100 mm culture dish was added thereto and cultured for a given time. The non-adherent cells and adherent cells in the cell medium were collected and washed twice with PBS, after which 500 μL of 100% cold methanol was added thereto and the cells were fixed at 4° C. The cells were washed twice with PBS and allowed to stand in RNase A-containing solution for 30 minutes, after which the cells were stained with propidium iodide (PI) buffer for 5 minutes. After removal of the PI buffer, the cells were transferred into a polystyrene round-bottom tube, and the cycle of the cells was analyzed by FACScalibur® flow cytometry.
compound,measurement,setting,value
"CNC(=O)[C@H]1S[C@@H](n2cnc3c(NCc4cccc(I)c4)nc(Cl)nc32)[C@H](O)[C@@H]1O [thio-Cl-IB-MECA, 2-chloro-N^6-(3-iodobenzyl)-4′-thioadenosine-5′-N-methyluronamide]",expression of IL-1β gene,[1]; RT-PCR,concentration-dependently inhibited
same,expression of IL-1β protein,[1]; Western blot,concentration-dependently inhibited
same,Wnt signaling pathway,[2],inhibited the Wnt signaling pathway
same,expression of Rb and p-Rb,[2],also inhibited the expression
same,"expression of cyclin D1, cyclin A and cyclin E",[2],inhibited the expression
same,expression of p53,[2],increased the expression
same,"G1 phase of cell cycle, HCT 116",[3],an increase in the G1 phase
